Data: patent publication US12350241B1, “Method for inhibiting proliferation of cancer cells” (IMAM MOHAMMAD IBN SAUD ISLAMIC UNIVERSITY, priority 2024, dated 2025)

What was measured:
Test in all cases: growth inhibition of cancer cells (FIG. 3)
Type in all cases: cell-based
[1] = system: HELA cancer stem cells
[2] = system: PC3 cancer stem cells
[3] = system: FaDu cancer stem cells
[4] = system: MDA-MB-468 cancer stem cells
[5] = system: HEP2 cancer cells
[6] = system: A549 lung cancer stem cells
[7] = system: HCT116 colon carcinoma stem cells

CCCCOc1ccc(Oc2ccc(C=O)cc2)cc1 [YS2, 4-(4-butoxyphenoxy)benzaldehyde]
growth inhibition percentage [1]: about 80% | growth inhibition percentage [2]: about 90% | growth inhibition percentage [3]: about 90% | growth inhibition percentage [4]: about 95% | growth inhibition percentage ([5]; HEP2 cancer cells): about 70% | performance compared to doxorubicin (DOX) ([5]; HEP cell line, versus commercially available doxorubicin): comparable to or outperformed DOX | performance compared to doxorubicin (DOX) ([6]; A549 cell line, versus commercially available doxorubicin): comparable to or outperformed DOX | growth inhibition percentage ([6]; A549 lung cancer stem cells): about 90% | performance compared to doxorubicin (DOX) ([7]; HCT 116 cell line, versus commercially available doxorubicin): comparable to or outperformed DOX | growth inhibition percentage ([7]; HCT116 colon carcinoma stem cells): about 90%
